Measured values taken from EPA's ToxValDB 9.5 (doi:10.2903/j.efsa.2017.4981).
Where “and” joins values, the source holds several entries; their conditions need not be identical. Equal values may be shown once.

How the values were obtained:
Tagia sp. = conditions: chronic/long-term, duration: 56 days
Rattus norvegicus = conditions: for LD50: acute, mortality
Folsomia candida = conditions: chronic/long-term; duration: 28 days; mortality
Canidae = conditions: oral, Dog Other, body weight
Oncorhynchus mykiss = conditions: mortality
Anas platyrhynchos = conditions: reproductive
Plant = conditions: chronic/long-term; duration: 4 months
Typhlodromus pyri = conditions: acute; mortality
Apis mellifera = conditions: acute, duration: 48 hours, mortality
Daphnia magna = conditions: chronic/long-term; duration: 21 days; reproduction
[1] = chronic, duration: 2 years, oral, diet, organ weight
[2] = reproduction developmental, reproduction
[3] = subchronic, duration: 90 days, oral, diet, F, organ weight

CCOCCN(C(C)=O)C(=C(C)C)c1ccccc1
NOEC (Tagia sp.; growth): 30 mg/kg | NOAEL (Rattus norvegicus; [1]): 1 mg/kg-day | NOAEL (Rattus norvegicus; [2]): 8 mg/kg-day | NOAEL (Rattus norvegicus; [3]): 8 mg/kg-day | NOEC (Folsomia candida): 50 mg/kg | NOAEL (Canidae; subchronic, duration: 90 days): 8 mg/kg-day

CCOCCN(C(=O)CS(=O)(=O)O)C(=C(C)C)c1ccccc1
NOEC (Tagia sp.; growth): 100 mg/kg | LD50 (Rattus norvegicus; oral): > 2000 mg/kg-day | NOAEL (Rattus norvegicus; short-term, duration: 4 weeks, oral, diet): 410 mg/kg-day | NOEC (Folsomia candida): 93.3 mg/kg

CC(C)=C(c1ccccc1)N(CC(=O)O)C(=O)CS(=O)(=O)O [N-(2-Methyl-1-phenylprop-1-en-1-yl)-N-(sulfoacetyl)glycine]
NOEC (Tagia sp.; growth): 60 mg/kg | NOEC (Folsomia candida): 100 mg/kg

CCOCCN(C(=O)CCl)C(=C(C)C)c1ccccc1 [Pethoxamid]
LC50 (Oncorhynchus mykiss; acute, duration: 96 hours): 2.2 µg/mL and 2.19 µg/mL | NOEC (Oncorhynchus mykiss; chronic/long-term, duration: 94 days): 0.0924 mg/L | NOEL (Anas platyrhynchos): 396 mg/kg-day | NOEC (Tagia sp.; reproduction): 0.8 mg/kg | LD50 (Rattus norvegicus; oral, M): 983 mg/kg-day | NOAEL (Rattus norvegicus; [1]): 1 mg/kg-day | NOAEL (Rattus norvegicus; reproduction developmental, oral, diet, F, reproduction): 24 mg/kg-day | NOAEL (Rattus norvegicus; [2]): 8 mg/kg-day | NOAEL (Rattus norvegicus; [3]): 8 mg/kg-day | NOAEC (Plant): 8 µg/L | LD50 (Colinus virginianus; acute, oral, mortality): 872 mg/kg-day | NOEL (Colinus virginianus; reproduction developmental): 100 mg/kg-day | LEC (Typhlodromus pyri): ≤ 1200 g/ha | LD50 (Apis mellifera; dermal): > 200 µg/piece | LD50 (Apis mellifera; oral, unspecified): > 200 µg/piece | NOEC (Daphnia magna): 2.8 mg/L | NOAEL (Canidae; chronic, duration: 1 years): 2 mg/kg-day | NOAEL (Canidae; subchronic, duration: 90 days): 8 mg/kg-day
